Measured values: US20080045499A1, “Preferential Inhibition of Presenilin-1” (Elan Pharmaceuticals, Inc., priority 2006, published 2008)

Key:
[1] = tested on: Presenilin-1-comprised γ-secretase relative to Presenilin-2-comprised γ-secretase; experiment: PS1/PS2 selectivity: ratio of EC50 in Presenilin-2 and Presenilin-1 transfected cells; assay type: cell-based, human; details: mean values from 2 independent experiments (FIG. 11)
Source text: EC50 values were derived by curve fitting of Aβ1-x levels, for samples treated with various concentrations of gamma secretase inhibitors, with XLfit software program (IDBS, Alameda, Calif., USA). Differences in EC50 values obtained for Presenilin-1 transfected cells and Presenilin-2 transfected cells exposed to a test compound served as an indicator of differential inhibition.
Cell culture medium is then removed from the transfected cell lines and analyzed for Aβ1-x levels by ELISA assay, as described in Example 1. ELISA assays are performed using ELISA plates coated with the mAb 266 to capture Aβ peptides and then by detecting Aβ peptides with biotinylated mAb 3D6. EC50 values are derived for all of the test compounds. Differences in EC50 values obtained for Presenilin-1 transfected cells and Presenilin-2 transfected cells exposed to a test compound serve as an indicator of differential inhibition.
For example, several tested compounds are sulfonamide compounds, while several are non-sulfonamide compounds. The ratio of the EC50 value obtained for Presenilin-2 transfected cells and Presenilin-1 transfected cells (indicated in the last column of Table I) indicates the degree to which the test compound is capable of preferentially inhibiting Presenilin-1. […] In Table 2, the values shown in columns A, B and C are EC50 values (nM). Where inhibition was very low, EC50 values were not generated by the program; thus EC50 values are not provided. Rather, percent of inhibition was estimated based on the inhibition curve generated by the program. Percentages indicate percentage inhibition at a compound concentration of 10 uM. […]

PS2/1C = experiment: Inhibition of chimeric presenilin PS2/1C; assay type: cell-based, human; details: chimeric PS1/PS2 molecule, FIG. 11
Source text: Human PS1, PS2, and APPsw cDNA inserts were subcloned into pCF vector, which was modified with pcDNA3 (Invitrogen, CA, USA) by inserting the adenoviral tripartite leader sequence (Berkner et al, (1987) J. Virol. April; 61(4): 1213-20. Abundant expression of polyomavirus middle T antigen and dihydrofolate reductase in an adenovirus recombinant) 38 bp upstream of the starting ATG codon, between the CMV promoter and the EcoR1 site. Construction of presenilin chimeras was PCR-based. For making chimeras that contain PS1backbone and a PS2 fragment, we first generated a large PCR fragment that contained the entire pCF vector plus all PS1 sequence to be retained, and a small PCR fragment that only contained the PS2 fragment to be used in the final chimera. The two PCR fragments were then ligated in a blunt-end fashion by Rapid DNA ligation kit (Roche, Ind., USA). We used pfu Turbo DNA polymerase kit (Strategene, Calif., USA) for all PCR reactions. To avoid potential mutations introduced by PCR, we first sequenced the entire insert in both strands. […] For making chimeras that contained PS2 backbone and a PS1 fragment, we first generated a large PCR fragment that contained the entire pCF vector plus all PS2 sequence to be retained, and a small PCR fragment that only contained the PS1 fragment to be used in the final chimera. All other cloning procedures were the same as described above. […]

BMS299897 [reference compound]
fold more selective for PS1 [1]: ~35 fold
inhibitor potencies against PS2/1C compared with PS1 (PS2/1C): behaved just like PS1
